Source: patent US20020173515A1, “Antiproliferative substituted 5-thiapyrimidinone and 5-selenopyrimidinone compounds” (priority 1992, published 2002)
pIC50, pKi: −log10 of the molar value.

Key:
[1] = tested on: CCRF-CEM, a human lymphoblastic leukemia line of T-cell origin; test: Cellular growth inhibition, CCRF-CEM (MTT-tetrazolium reduction); assay type: cell-based; conditions: 120 h, 5 days continuous exposure
Protocol: (§1) Cellular growth in the presence of the compounds according to the present invention was assessed using two cell lines: the L1210 murine leukemia (ATCC CCL 219) and CCRF-CEM, a human lymphoblastic leukemia line of T-cell origin (ATCC CCL 119). Both lines were maintained in RPMI 1640 medium containing 5% heat-inactivated fetal bovine serum without antibiotics.
(§2) Growth was measured over 3 days (L1210) or 5 days (CCRF-CEM) of continuous exposure to varying concentrations of each test compound added 4 hours after initial cell plating by the MITT-tetrazolium reduction assay of Mosmann T. J. (Immunol. meth. 65, 55-63 (1983)), modified according to Alley et al. (Cancer Res. 48, 589-601 (1988)). Water insoluble derivatives were dissolved in DMSO and diluted to a final concentration of 0.5% solvent in cell cultures.

[2] = tested on: L1210 murine leukemia; test: Cellular growth inhibition, L1210 (MTT-tetrazolium reduction); assay type: cell-based; conditions: Mus musculus, L1210, 72 h; 3 days continuous exposure; read-out: Cell Line, IC50 L1210
Protocol: as §1, §2

[3] = tested on: L1210-C192; test: Cellular growth inhibition, L1210-C192; assay type: cell-based; conditions: read-out: Cell Line, IC50 L1210-C192
[4] = target: T1, GARFT domain of the human enzyme (Homo sapiens, UniProt P22102); test: GARFT inhibition constants, Method I (Cleland; spectrophotometric assay of Young et al.); assay type: biochemical; conditions: Method I (Examples 2-5 and 10); 22° C, 20 mM Hepes pH 7.5, 20 μM GAR, variable 10-formyl-5,8-dideazafolate
T1 construct: The GARFT domain of the human enzyme was used
T1 sequence (P22102 810-1010 limits assumed): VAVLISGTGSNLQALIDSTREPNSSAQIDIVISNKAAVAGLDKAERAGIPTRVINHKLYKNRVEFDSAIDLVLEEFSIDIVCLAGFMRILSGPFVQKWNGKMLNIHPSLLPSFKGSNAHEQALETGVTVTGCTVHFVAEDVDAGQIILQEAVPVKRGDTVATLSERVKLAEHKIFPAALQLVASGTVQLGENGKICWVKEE
Protocol: Determination of Inhibition Constants for GARFT
The GARFT domain of the human enzyme was used. […] The assay mix contained 20 mM Hepes pH 7.5, 20 μM GAR, and variable amounts of 10-formyl-5,8-dideazafolate and inhibitor. For each inhibitor five concentrations were used ranging from 0 to approximately 3Ki. The data were plotted as the […] versus the reciprocal of the 10-formyl-5,8-dideaza-folate concentration. The inhibition constants were measured from a replot of the slopes of these lines obtained for each concentration of inhibitor versus the inhibitor concentration.

[5] = target: T2, catalytic domain of the human GARFT (Homo sapiens, UniProt P22102); test: GARFT inhibition constants, Method II (modified Young et al. assay); assay type: biochemical; conditions: Method II (Examples 6, 7, 8 and 9); 20° C, 50 mM Tris-Cl pH 7.5, 20 μM GAR, 10 or 20 μM FDDF
T2 construct: Reaction mixtures contained the catalytic domain of the human GARFT
T2 sequence (P22102 810-1010 limits assumed): T1 sequence (P22102 810-1010 limits assumed)
Protocol: Reaction mixtures contained the catalytic domain of the human GARFT, inhibitor, 20 μM glycinamide ribonucleotide (GAR), 10 or 20 μM N^10-formyl-5,8-dideazafolate (FDDF), and 50 mM Tris-Cl at pH 7.5.
GARFT constants (Ki) were determined from the dependence of the steady-state catalytic rate upon inhibitor and substrate concentration. […] The michaelis constant Km, was determined independently by the dependence of the catalytic rate upon FDDF concentration. Data for both the Km and Ki determinations were fitted by non-linear methods to the Michaelis equation or the Michaelis equation for competitive inhibition as appropriate.

[6] = target: T3, partially purified AICARFT from cultured CEM cells (Homo sapiens, UniProt P31939); test: AICARFT inhibition constants (modified Black et al. assay); assay type: biochemical; conditions: 37° C, 50 mM Tris-Cl pH 7.4, 50 μM racemic FTHF
T3 construct: partially purified AICARFT from cultured CEM cells; endogenous in cells; host or cells: CEM cells (partially purified enzyme preparation)
Protocol: Determination of Inhibition Constants for AICARFT
The assay method of Black et al. (Anal Biochem 90, 397-401 (1978)) was modified and used as described below. Buffers were degassed under vacuum prior to the preparation of substrate solutions and degassed buffer was used in the reaction mixtures. Reaction mixtures contained partially purified AICARFT from cultured CEM cells, inhibitor, 100 μM […] (5-aminoimidazole-4-carboxamide-ribonucleotide), 50 μM of a racemic mixture of N10-formyl-tetrahydrofolate (FTHF), 25 mM KCl, 50 mM 2-mercaptoethanol and 50 mM Tris-Cl pH 7.4. The reaction was initiated with the addition of the enzyme solution to a final concentration of 0.1 mg/mL and the reaction followed by monitoring the increase in absorbance at 298 nm at 37° C. (ε298=28 mM cm^−1).
AICARFT inhibition constants (Ki) were determined from the dependence of the steady-state catalytic rate upon inhibitor and substrate concentration. The type of inhibition observed and the determination of Ki was performed as described above for inhibitors of GARFT with the appropriate substrates and the AICARFT assay. Treatment of experimental data was essentially the same.

T3 sequence (P31939 whole entry): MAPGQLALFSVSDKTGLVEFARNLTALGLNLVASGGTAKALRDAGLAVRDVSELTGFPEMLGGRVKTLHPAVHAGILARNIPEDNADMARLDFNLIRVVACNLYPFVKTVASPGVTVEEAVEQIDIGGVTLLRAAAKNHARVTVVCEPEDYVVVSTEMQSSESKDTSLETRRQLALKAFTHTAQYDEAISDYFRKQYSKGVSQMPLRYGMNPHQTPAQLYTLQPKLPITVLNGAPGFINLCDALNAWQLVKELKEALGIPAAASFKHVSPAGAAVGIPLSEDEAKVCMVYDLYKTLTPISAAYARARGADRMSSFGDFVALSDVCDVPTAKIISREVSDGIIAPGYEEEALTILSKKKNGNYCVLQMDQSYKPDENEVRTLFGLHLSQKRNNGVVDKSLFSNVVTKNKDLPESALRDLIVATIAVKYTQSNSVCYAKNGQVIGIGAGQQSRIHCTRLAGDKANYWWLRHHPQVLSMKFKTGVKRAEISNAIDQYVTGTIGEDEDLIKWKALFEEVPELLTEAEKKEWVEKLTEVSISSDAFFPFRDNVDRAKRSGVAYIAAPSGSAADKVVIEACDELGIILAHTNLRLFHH

Row | pIC50 [1] | pIC50 [2] | pIC50 [3] | pKi [4] | pKi [5] | pKi [6] | melting point | SMILES
1 | 7.19 | 7.10 | 5.30 | – | – | – | – | Nc1nc(N)c(SCCCc2ccc(C(=O)N[C@@H](CCC(=O)O)C(=O)O)cc2)c(=O)[nH]1 [Example 2, N-(4-(3-[2,6-diamino-4(3H)-oxopyrimidin-5-yl)thio]propyl)benzoyl-(S)-glutamic Acid]
2 | 7.31 | 7.40 | 4.98 | 7.46 | – | – | – | Nc1nc(N)c(SCCCc2ccc(C(=O)N[C@@H](CCC(=O)O)C(=O)O)s2)c(=O)[nH]1 [Example 3, N-[2-(5-[3-([2,6-diamino-4(3H)-oxopyrimidin-5-yl]thio)propyl]-thienoyl)]-(S)-glutamic Acid]
3 | 6.89 | 6.96 | 5.00 | 6.96 | – | – | – | Nc1nc(N)c(SCCSc2ccc(C(=O)N[C@@H](CCC(=O)O)C(=O)O)cc2)c(=O)[nH]1 [Example 4, N-[(4-[2-([2,6-diamino-4(3H)-oxopyrimidin-5-yl]thio)ethyl]thio)benzoyl]-S-glutamic Acid]
4 | 7.10 | 7.05 | 5.38 | 7.06 | – | – | – | Nc1nc(N)c(SCCNc2ccc(C(=O)N[C@@H](CCC(=O)O)C(=O)O)cc2)c(=O)[nH]1 [Example 5, N-[4-(N-[2-([2,6-diamino-4(3H)-oxopyrimidin-5-yl]thio)ethyl]amino)benzoyl]-S-glutamic Acid]
5 | 5.92 | 5.82 | 4.92 | 4.52 | – | 4.22 | 177 to 181 °C | Nc1nc(N)c(SCCc2ccc(C(=O)N[C@@H](CCC(=O)O)C(=O)O)cc2)c(=O)[nH]1 [Example 10]

The next lines start with the molecule.

Row | SMILES | pIC50 [1] | pIC50 [2] | pIC50 [3] | pKi [4] | pKi [5] | pKi [6] | melting point
6 | Cc1cc(CCCSc2c(N)nc(N)[nH]c2=O)sc1C(=O)N[C@@H](CCC(=O)O)C(=O)O [Example 6] | 7.17 | 6.92 | < 4.60 | – | – | – | –
7 | Cc1cc(C(=O)N[C@@H](CCC(=O)O)C(=O)O)sc1CCCSc1c(N)nc(N)[nH]c1=O [Example 7] | 7.00 | 7.05 | 4.55 | – | – | – | –
8 | Nc1nc(N)c(SCC2CCc3cc(C(=O)N[C@@H](CCC(=O)O)C(=O)O)sc3C2)c(=O)[nH]1 (stereo partly drawn) [Example 8, N-(6-[([2,6-diamino-4(3H)oxopyrimidin-5-yl]-thio)methyl]-4,5,6,7-tetrahydrobenzothieno-2-yl)-S-glutamic Acid] | 8.10 | 8.00 | 5.05 | – | – | – | –
9 | Nc1nc(N)c(SCCc2ccc(C(=O)N[C@@H](CCC(=O)O)C(=O)O)s2)c(=O)[nH]1 [Example 9, N-(5-[2-([2,6-Diamino-4(3H)-oxopyrimidin-5-yl]thio)ethyl]thieno-2-yl)-L-glutamic Acid] | 6.21 | 6.60 | 4.66 | – | 5.70 | 4.46 | 228 to 230 °C (dec.)
